Data as given in patent US20170049676A1, “TOPICAL COMPOSITION” (Conopco, Inc., d/b/a UNILEVER, priority 2014, published 2017).
Like-named read-outs stand apart in the source and are kept apart here.

What was measured:
[1] = system: rat basophilic leukemia (RBL-2H3) cells; details: cited from earlier work
[2] = system: heme oxygenase 1 (HO-1); assay: Heme oxygenase 1 (HO-1) ELISA on lysates of adult fibroblasts treated with isothiocyanates (Example 2); type: cell-based; details: primary human adult dermal fibroblast cells; for HO-1 (pg HO-1 per μg protein): 24 hours, vehicle control 179 ± 28; for production of HO-1 (in words): either at 1 or 2 μM
Protocol: Primary human adult dermal fibroblast cells were routinely cultured and passaged in Dulbecco's Modified Eagle Medium (DMEM) supplemented with 10% foetal bovine serum (FBS), known as complete medium. Cells were plated out in 12-well tissue culture plates at a seeding density of 20,000 cells per well in 1 ml of low serum medium (DMEM supplemented with 1% FBS) and incubated at 37° C. in 5% CO2 for 96-120 hours before addition of the test samples.
The isothiocynates (all from Sigma-Aldrich Company) sulforaphane, allyl isothiocyanate (AITC), alpha-naphthyl isothiocyanate (NITC), phenethyl isothiocyanate (PEITC) and benzyl isothiocyanate (BITC) were prepared in dimethyl sulphoxide (DMSO) and diluted in DMEM supplemented with 1% FBS to a final concentration of 1 uM and 2 uM. Dermal fibroblasts were treated with 1 ml/well of the test samples for a period of 24 hours. A solvent vehicle was included in each experimental plate.
After 24 hours the cell monolayer was washed with 1 ml of Dulbecco's Phosphate Buffered Saline (DPBS) per well and lysed with 400 μl of RIPA cell lysis buffer per well. The RIPA cell lysis buffer consisted of 150 mM NaCl, 1% v/v Nonidet-P40 (Igepal CA603 from Fluke 56741), 0.1% w/v sodium dodecyl sulphate (SDS) and 0.1% w/v sodium deoxycholate in 50 mM Tris-HCL buffer at pH 7.6. Protease inhibitor tablets were added to the lysis buffer immediately prior to use, at the manufacturer's recommended level. The plates received one freeze thaw cycle to ensure complete cell lysis. The lysates were subsequently clarified by scraping the samples off the plates with a pipette tip, centrifuging at 13,000 rpm for 10 minutes and transferring the supernatant into a 96 well microtitre plate. The clarified lysates were stored at −20° C. until needed.
The heme oxygenase 1 (HO-1) protein concentration of each cell lysate was assayed using the Human HO-1 ELISA Kit from Assay Designs (ADI-EKS-800, Enzo Life Sciences, UK) according to the manufacturer's instructions. Briefly, […] were diluted 1 in 10 in sample diluent, and 100 μl transferred to the pre-coated anti-HO-1 immunoassay plate. A 7-point recombinant HO-1 standard curve, ranging from 25 to 0.39 ng/ml, was also prepared in sample diluent. The immunoassay plate was incubated at room temperature for 30 minutes, washed six times with Wash Buffer, and incubated for a further 60 minutes at room temperature with 100 μl/well of anti-HO-1 antibody solution. The plate was washed as above and incubated for 30 minutes at room temperature with 100 μl/well of horseradish peroxidase (HRP)-conjugate solution. Again the plate was washed as above and 100 μl/well of 3,3′,5,5′-tetramethylbenzidine (TMB)-substrate added to each well for 15 minutes at room temperature in the dark. Following the addition of 100 μl/l well of stop solution, the absorbance was read at 450 nm on a microplate reader (Dynex MRX) and the unknown lysate levels of HO-1 were extrapolated from the standard curve. […]

[3] = system: myrosinase from Raphanus sativus var. longipinnatus (daikon); details: cited from earlier work; for effect on enzymic activity (in words): sinigrin as substrate, pH 6.0; for reaction velocity, % of that with 500 μM ascorbic acid: 150 μM sinigrin
[4] = system: enzyme from Salix alba (white willow); details: cited from earlier work
[5] = system: enzymes from several other Brassica species; details: cited from earlier work
[6] = system: myrosinase in partially purified extracts of six crucifers; details: cited from earlier work
[7] = system: heme oxygenase 1 (HO-1); assay: Heme oxygenase 1 (HO-1) ELISA on lysates of fibroblasts treated 24 hours, normalised to total protein (Example 1); type: cell-based, human; details: 8.4 mM controls
Protocol: Primary human neonatal dermal fibroblast cells were cultured and passaged in Dulbecco's Modified Eagle Medium (DMEM) supplemented with 10% foetal bovine serum (FBS), known as complete medium. Cells were routinely plated out in 24-well tissue culture plates at a seeding density of 40,000 cells per well in 1 ml complete medium, and incubated at 37° C. in 5% CO2 for 48 hours before addition of the test solutions.
After removal and storage of the tissue culture supernatant, the cell monolayer was washed with 1 ml of Dulbecco's Phosphate Buffered Saline (DPBS) per well and lysed with 200 μl cell lysis buffer per well. The cell lysis buffer consisted of 0.5% w/w Triton™ X100 (octyl phenol ethoxylate) and 1 mM ethylenediaminetetraacetic acid (EDTA) in phosphate buffer solution (PBS) at pH 7.2. Protease inhibitor tablets were added to the lysis buffer immediately prior to use, at the manufacturer's recommended level. The plates received one freeze thaw cycle to ensure complete cell lysis. The lysates were subsequently clarified by scraping the samples off the plates with a pipette tip and passing them through an Acrowell™ filter plate (Pall Corporation) using an Acroprep™ vacuum manifold (Pall Corporation) into a 96 well microwell plate. The clarified lysates were stored at −20° C. until needed.
A set of eight standard solutions ranging from 0 to 800 μg/ml protein was prepared from the supplied 2 mg/ml bovine serum albumin (BSA) stock solution. 10 μl of standard or cell lysate was added to duplicate wells of a flat-bottomed, 96-well microtitre plate. The reagent solution was prepared according to the kit instructions from 50 parts reagent A and 1 part reagent B. 200 μl of the final reagent was added to each well of the microtitre plate. The plate was mixed, covered and incubated at 37° C. for 30 minutes and absorbance read at 540 nm. A protein standard curve was constructed and used to determine the protein concentration of each individual cell lysate.
The heme oxygenase 1 (HO-1) protein concentration of each cell lysate was assayed using the Human Total HO-1/HMOX1 DuoSet IC assay (R&D Systems Europe Ltd) according to the manufacturer's instructions. This DuoSet IC ELISA ([…]) contains the basic components required for the development of sandwich ELISAs to measure HO-1/HMOX1 (heme oxygenase (decycling) 1 which is a human gene that encodes for the enzyme heme oxygenase 1)/HSP32 (heat shock protein 32 (Hsp32), also known as heme oxygenase 1 (HO-1)) in cell lysates. An immobilized capture antibody specific for HO-1/HMOX1/HSP32 binds both phosphorylated and unphosphorylated HO-1/HMOX1/HSP32. […]

[8] = system: primary human neonatal dermal fibroblast cells
[9] = system: primary human neonatal dermal fibroblast cells; assay: Cytotoxicity assay, ApoTox-Glo Triplex Assay (dead-cell protease, bis-AAF-R110)

For `O=c1c(O)c(-c2ccc(O)c(O)c2)oc2cc(O)cc(O)c12` [Quercetin], the “Nrf2 translocation (in words)” value ([1]; RBL-2H3 cells) is given as “translocate Nrf2 from cytoplasm into nucleus” and the “mast cell degranulation and release of histamine (in words)” value [1] is given as “inhibit mast cell degranulation and subsequent release of histamine”.
In the case of `S=C=Nc1cccc2ccccc12` [Alpha-naphthyl isothiocyanate (NITC), Alpha-naphthyl isothiocyanate], the “HO-1 (pg HO-1 per μg protein)” value ([2]; 1 μM) is reported as 195 ± 25 pg HO-1 per μg protein, the “HO-1 (pg HO-1 per μg protein)” value ([2]; 2 μM) is reported as 191 ± 31 pg HO-1 per μg protein and the “production of HO-1 (in words)” value [2] is reported as “increase the production of HO-1”.
For `C[S+]([O-])CCCCN=C=S` (stereo not drawn) [Sulforaphane], the “HO-1 (pg HO-1 per μg protein)” value ([2]; 1 μM) was 280 ± 15 pg HO-1 per μg protein, the “HO-1 (pg HO-1 per μg protein)” value ([2]; 2 μM) was 309 ± 45 pg HO-1 per μg protein and the “production of HO-1 (in words)” value [2] was “increase the production of HO-1”.
In the case of `O=S(=O)(O)O` [sulphate], the “effect on enzymic activity (in words)” value [3] is listed as “inhibited activity competitively”.
With `S=C=NCc1ccccc1` [Benzyl isothiocyanate (BITC), Benzyl isothiocyanate] the “HO-1 (pg HO-1 per μg protein)” value ([2]; 1 μM) was 381 ± 50 pg HO-1 per μg protein, the “HO-1 (pg HO-1 per μg protein)” value ([2]; 2 μM) was 730 ± 170 pg HO-1 per μg protein and the “production of HO-1 (in words)” value [2] was “increase the production of HO-1”.
For `O=C1O[C@H]([C@@H](O)CO)C(O)=C1O` [ascorbic acid], the “reaction velocity, % of that with 500 μM ascorbic acid” value ([3]; 0.75 mM ascorbic acid) is given as 90%, the “reaction velocity, % of that with 500 μM ascorbic acid” value ([3]; 1.0 mM ascorbic acid) is given as 73% and the “effect on enzymic activity (in words)” value [3] is given as “enzymic activity was enhanced greatly”. For the same molecule, the activation by ascorbate [4] was 2-3 fold, the activation by ascorbate [5] was 8-12 fold and the “ascorbate concentrations for maximal activation of myrosinase” value [6] was 0.7 to 5.0 mM.
For `C=CCN=C=S` [Allyl isocyanate control, Allyl isothiocyanate], the “Normalised HO-1 (vehicle = 100)” value ([7]; dilution 1/50) was 335.46 ± 54.80, the “Normalised HO-1 (vehicle = 100)” value ([7]; dilution 1/100) was 383.74 ± 30.02 and the “HO-1 (pg HO-1 per μg protein)” value ([2]; 1 μM) was 207 ± 13 pg HO-1 per μg protein. The “HO-1 (pg HO-1 per μg protein)” value ([2]; 2 μM) was 243 ± 26 pg HO-1 per μg protein, the “production of HO-1 (in words)” value [2] was “increase the production of HO-1” and the “cytotoxicity to the fibroblast cells (in words)” value [8] was “Neither myrosinase, nor the glucosinolate sinigrin, nor allyl isothiocyanate induce cytotoxicity on their own”. The “Cytotoxicity (RFU × 1000)” value ([8]; human, 24 h, 0.168 mM) was 66.71 ± 4.63 RFU × 1000 and the “inhibition of activity (in words)” value ([3]; concentrations as high as 1 mM) was “did not significantly inhibit activity”.
In the case of `S=C=NCCc1ccccc1` [Phenethyl isothiocyanate (PEITC), Phenethyl isothiocyanate], the “HO-1 (pg HO-1 per μg protein)” value ([2]; 1 μM) is reported as 429 ± 49 pg HO-1 per μg protein, the “HO-1 (pg HO-1 per μg protein)” value ([2]; 2 μM) is reported as 668 ± 101 pg HO-1 per μg protein and the “production of HO-1 (in words)” value [2] is reported as “increase the production of HO-1”.
With `C=CCC(=NOS(=O)(=O)O)S[C@@H]1O[C@H](CO)[C@@H](O)[C@H](O)[C@H]1O` [Sinigrin control, sinigrin (2-propenyl or allyl glucosinolate)] the “Normalised HO-1 (vehicle = 100)” value ([7]; dilution 1/50) was 168.32 ± 73.93, the “Normalised HO-1 (vehicle = 100)” value ([7]; dilution 1/100) was 49.08 ± 12.98 and the “Cytotoxicity (RFU × 1000)” value ([9]; 8.4 mM controls in complete medium, dilution 1/50, second series (untreated cells 18.63)) was 80.94 ± 39.75 RFU × 1000. For the same molecule, the “cytotoxicity to the fibroblast cells (in words)” value ([9]; extract without heat treatment, single components on their own at comparable levels) was “Neither myrosinase, nor the glucosinolate sinigrin, nor allyl isothiocyanate induce cytotoxicity on their own”.
